Residues, ends and D or L forms follow the SMILES beside them. *: point of attachment. X1 = Cn1c2ccccc2c2ccnc(-c3ccc(/C=C/C(=O)*)cn3)c21
Key:
PC-3 cells [1] = assay: Clonogenic assay; type: cell-based, human; details: 5 μM, blue light irradiation, 10 days, versus control cells
Description: The effect of the metallopeptides Ir-BN and Ru-BN as well as of the complexes Ir-H and Ru-H on the viability of PC-3 cells was next investigated through clonogenic assays, which determine the fraction of cells that survive treatment and retain the ability to generate new colonies.[56] This is a crucial feature of metastatic cancer cells, which need to proliferate in distant tissues to create secondary tumors. For this purpose, PC-3 cells were treated with the compounds at an equimolar concentration of 5 μM with or without photoactivation with blue light. Ten days later, the number of cells that survived and were able to grow and form colonies was assessed in comparison to control cells. Cells treated with cisplatin were used as a positive control.
Figure 8 Clonogenic assay. PC-3 cells were treated with the indicated compounds at 5 μM in the dark and with blue light irradiation. Control cells were treated with the medium alone. Cisplatin was used as a positive control. Cells were incubated for 10 days to allow colony formation. (A) Images of the colonies. (B) Bar charts representing the percentage of colonies versus control cells after each treatment (mean ± SD of 3 experiments). ** p < 0.01; *** p < 0.001 versus control cells.
PC-3 cells were seeded at a density of 100000 cells per well in 12-well plates and allowed to adhere for 24 h. The cells were treated with the compounds […] for 4 h and subsequently irradiated with blue light or kept in the dark for one hour. The treatments were then removed, and the cells were washed with PBS, harvested by trypsinization, and counted using a Novocyte flow cytometer (Agilent Technologies). Subsequently, 3000 cells were seeded in 5 cm culture dishes and incubated for 10 days to allow colonies to form. A colony was defined to consist of at least 50 cells. Cells treated with cisplatin (5 μM) were used as a positive control, and cells treated with the culture medium alone were used as a negative control. […] Each compound was evaluated in triplicate.

PC-3 cells [2] = assay: Superoxide anion generation (ROS-ID Superoxide Detection Kit); type: cell-based, human; details: IC50,light 4 h, blue light 1 h
Description: The photocytotoxic effects of the complexes and metallopeptides were further elucidated by evaluating their ability to photogenerate ROS at the cellular level. PC-3 cells were treated with the compounds at the respective IC50,light and irradiated with blue light. Subsequently, ROS generation was measured using the 2′,7′-dichlorodihydrofluorescein diacetate (H2DCFDA) probe, which diffuses into cells and is oxidized by ROS to produce a green fluorescent signal. […] Nevertheless, to ascertain the potential contributions of other ROS to the photocytotoxic activity, the capacity of the compounds to undergo type I PDT processes, resulting in the production of superoxide anions (O2^•–), was examined using a specific fluorescent probe that emits an orange signal upon interaction with this radical. Ir-H, Ir-Me, and Ir-BN induced the most significant increase in O2^•– levels, with fold changes of 2.4, 3.5, and 3.4, respectively, compared to control cells. […] These findings highlight the diverse mechanisms of ROS generation employed by these compounds, in particular the Ir complexes, which may contribute to their overall photocytotoxic efficacy.
Figure 9 Intracellular ROS generation. PC-3 cells were treated with the indicated complexes and metallopeptides at their respective IC50,light for 4 h, followed by blue light irradiation for 1 h (460 nm, 24.1 J cm^–2). The elevation of general ROS (A) and superoxide anion (B) levels was determined with specific probes by flow cytometry. Bars represent the mean fold increase (±standard deviation) relative to control untreated cells from three independent experiments. * p < 0.05; ** p < 0.01, *** p < 0.001 compared to control cells.
A similar protocol was followed to evaluate superoxide production using the ROS-ID Superoxide Detection Kit (Enzo Life Sciences) according to the manufacturer’s instructions.

Row | Compound | decrease in number of colonies (PC-3 cells [1]) | O2•– levels, fold change versus control cells (PC-3 cells [2])
1 | Cn1c2ccccc2c2ccnc(-c3ccc(/C=C/C(=O)O)cn3)c21.[Cl-].[Cl-].[Ru+2].c1ccc(-c2ccccn2)nc1.c1ccc(-c2ccccn2)nc1 [Ru-H] | No effect | 
2 | COC(=O)/C=C/c1ccc(-c2nccc3c4ccccc4n(C)c23)nc1.[Cl-].[Ir+3].[c-]1ccccc1-c1ccccn1.[c-]1ccccc1-c1ccccn1 [Ir-Me] |  | 3.5 fold
3 | CC(C)C[C@H](NC(=O)[C@H](CC(C)C)NC(=O)[C@H](Cc1c[nH]cn1)NC(=O)CNC(=O)[C@@H](NC(=O)[C@H](C)NC(=O)[C@H](Cc1c[nH]c2ccccc12)NC(=O)[C@H](CCC(N)=O)NC(=O)[C@H](CC(N)=O)NC(=O)CNC(=O)[C@H](CC(C)C)NC(=O)[C@H](CCCNC(=N)N)NC(=O)[C@H](CCC(N)=O)NC(=O)/C=C/c1ccc(-c2nccc3c4ccccc4n(C)c23)nc1)C(C)C)C(N)=O [Ir-BN] (X1-QRLGNQWAVGHLL-NH2) | 34.7% | 3.4 fold
4 | Cn1c2ccccc2c2ccnc(-c3ccc(/C=C/C(=O)O)cn3)c21.[Cl-].[Ir+3].[c-]1ccccc1-c1ccccn1.[c-]1ccccc1-c1ccccn1 [Ir-H] | 27.3% | 2.4 fold
